The text below walks through data of patent US5190934A, “P-subsituted propane-phosphinic acid compounds” (Ciba-Geigy Corporation, priority 1989, dated 1993).

The subject of the assay is "epileptic"-like discharges of pyramidal cells. Kind of assay: Penicilline-induced "epileptic" hippocampal slice preparation. The assay is classed as cell-based. To be noted: baclofen at 6 μM. As for the experimental part:
The GABAB antagonists of the present invention interact at the GABAB receptor with IC50 values starting from about 10^-7 M (moles/liter) in rat brain cortex membranes. […] The antagonism against baclofen has also been shown in in vitro electrophysiological models, such as the penicilline-induced "epileptic" hippocampal slice preparation, where baclofen, at a concentration of 6 μM inhibits "epileptic"-like discharges of pyramidal cells. The compounds of the invention antagonise the effects of baclofen at concentrations from approximately 10 to approximately 100 μM. In vivo, antagonism has been shown by ionophoresis of baclofen on rat cerebral cortex, and systemic application of antagonists in doses of 10-100 mg/kg. The muscle relaxant effects of baclofen measured in the rotarod model are also antagonized at doses of about 30 mg/kg i.p.

Regarding `NCC(CC(=O)O)c1ccc(Cl)cc1` (stereo not shown) [baclofen], the “effect on "epileptic"-like discharges of pyramidal cells” value is listed as “inhibits”.
